The record followed here is US12139478B2, “Compounds, compositions and methods” (Denali Therapeutics Inc., priority 2017, dated 2024).

pIC50: −log10 of the molar value. Read-outs that look alike come from different tables or passages of the source.

The test system of this assay is ATF4 translation. The assay is described as follows: ATF4 Nano Luciferase reporter integrated stress response (ISR) assay in H4 ATF4-NLuc cells. As to conditions: H4 ATF4-NLuc (clone 17) cells, compound 30 minutes, then sodium arsenite for 6 additional hours, luminescence readout; for pIC50: read-out: Activity; for IC50: read-out: Biological Example 1 (ATF4 translation, IC50 nM). Type of assay: cell-based, human. The source says:
Cellular stress leads to activation of the integrated stress response pathway through one of four eukaryotic initiation factor 2a kinases and halts global translation, while allowing for the translation of select transcripts like ATF4 (activating transcription factor 4) that are important for the response to cellular stress. During normal conditions, small open reading frames (ORFs) in the 5′ UTR of ATF4 occupy the ribosome and prevent translation of the coding sequence of ATF4. During stress conditions however, the ribosome scans past these upstream ORFs and preferentially begins translation at the coding sequence of ATF4. In this way, the translation, and thus protein level of ATF4 is a readout of ISR pathway activation. Thus, a fusion of the uORFs and the beginning of the coding sequence of ATF to a common cellular reporter like nano-luciferase allows for a sensitive and high-throughput readout of ISR pathway activity.
Compounds as provided herein were tested in the following assay. The ATF4 Nano Luciferase reporter was constructed by fusing the human full length 5′ untranslated region (5′-UTR) and a small portion of the coding sequence of the ATF4 gene upstream of the Nano Luciferase (NLuc) coding sequence lacking it's start codon. Specifically, nucleotides +1 through +364 (relative to the transcriptional start site) of ATF4 transcript variant 2 (NCBI NM_182810.2) flanked 5′ by EcoRI and 3′ by BamHI restriction enzyme sites were synthesized and cloned into the EcoRI/BamHI cloning sites of pLVX-EF1a-IRES-Puro lentivirus vector (Clontech). Lentiviral particles were produced with Lenti-X single shots (VSV-G, Clontech) according to the manufacturer's instructions and used to transduce a human H4 neuroglioma cell line (ATCC HTB-148). H4 cells were selected with 1.25 μg/mL Puromycin, and clonal cell lines generated by limiting dilution. We utilized this cell line to generate an integrated stress response (ISR) assay to evaluate the activity of ISR pathway inhibitors via luminescence readout. The H4 ATF4-NLuc (clone 17) cell line is plated at a density of […] in 96-well or 384-well respectively in DMEM+[…]. 24-hours later test compounds diluted in dimethyl sulfoxide (DMSO) are added for 30 minutes at 37° C., followed by ISR pathway activation with […] sodium arsenite aqueous solution for 6 additional hours. Nano Glo luciferase reagent (N1150, Promega) is added according to manufacturer instructions and the luminescence signal (corresponding to the level of ATF4 translation and thus ISR pathway activation) is read with a standard plate reader with luminescence detection capabilities. […] In the tables below, activity of the tested compounds is provided, and in Table 3 as follows: […]; ++=IC50 1-10 μM; +=IC50>10 μM.
(Reporter assays use an easily measured gene product as a stand-in for the process of interest.)

Usually IC50 stands for the concentration needed to halve the response being measured.

In the case of `O=C(COc1ccc(F)cc1)N[C@@H]1CC[C@@H](c2nnc(C3CC(OC(F)(F)F)C3)o2)OC1` (stereo partly drawn) [Example 20, 2-(4-fluorophenoxy)-N-[(3R,6S)-6-[5-[3-cis-(trifluoromethoxy)cyclobutyl]-1,3,4-oxadiazol-2-yl]tetrahydropyran-3-yl]acetamide], for the setting “Homo sapiens, 0.5 h”, the pIC50 was more than 6.00. `O=C(COc1ccc(F)c(F)c1)N[C@@H]1CC[C@@H](c2nnc([C@H]3C[C@@H](OC(F)(F)F)C3)o2)OC1` [Example 24, 2-(3,4-difluorophenoxy)-N-((3R,6S)-6-(5-(3-cis-(trifluoromethoxy)cyclobutyl)-1,3,4-oxadiazol-2-yl)tetrahydro-2H-pyran-3-yl)acetamide]: where the note is “Homo sapiens, 0.5 h”, the pIC50 was more than 6.00 and the IC50 turned out to be 10.5 nM. In the case of `O=C(COc1ccc(F)cc1)NC12CCC(c3nnc([C@H]4C[C@@H](OC(F)(F)F)C4)o3)(CC1)OC2` [Example 22, 2-(4-fluorophenoxy)-N-[1-[5-[3-cis-(trifluoromethoxy)cyclobutyl]-1,3,4-oxadiazol-2-yl]-2-oxabicyclo[2.2.2]octan-4-yl]acetamide], the pIC50 (Homo sapiens, 0.5 h) is more than 6.00.

Regarding `O=C(COC1CC(OC(F)(F)F)C1)NC1CC[C@@H](c2cn([C@H]3C[C@@H](OC(F)(F)F)C3)nn2)OC1` (stereo partly drawn) [Example 18, 2-[3-cis-(trifluoromethoxy)cyclobutoxy]-N-[(3R,6S)-6-[1-[3-cis-(trifluoromethoxy)cyclobutyl]triazol-4-yl]tetrahydropyran-3-yl]acetamide], the pIC50 (Homo sapiens, 0.5 h) was more than 6.00. Turning to `O=C(COc1ccc(F)cc1)N[C@H]1CO[C@H](c2nnc([C@H]3C[C@@H](OC(F)(F)F)C3)o2)C2CC21` (stereo partly drawn) [Example 32, 2-(4-fluorophenoxy)-N-((2S,5R)-2-(5-(3-cis-(trifluoromethoxy)cyclobutyl)-1,3,4-oxadiazol-2-yl)-3-oxabicyclo[4.1.0]heptan-5-yl)acetamide], the pIC50 (Homo sapiens, 0.5 h) is more than 6.00.

`O=C(N[C@@H]1CC[C@@H](c2nnc(C3CC(OC(F)(F)F)C3)o2)OC1)C1CCc2cc(Cl)ccc2O1` (stereo partly shown) [Example 45]: where the note is “Homo sapiens, 0.5 h”, the pIC50 was more than 6.00. As to `O=C(COc1ccc(F)cc1)N[C@H]1CO[C@H](c2nnc([C@H]3C[C@@H](OC(F)(F)F)C3)o2)CC1(F)F` [Example 35, N-[(3S,6S)-4,4-difluoro-6-[5-[3-cis-(trifluoromethoxy)cyclobutyl]-1,3,4-oxadiazol-2-yl]tetrahydropyran-3-yl]-2-(4-fluorophenoxy)acetamide], under “Homo sapiens, 0.5 h”, the pIC50 was more than 6.00. Still for that read-out and setting: the figure for `O=C(COc1ccc(Cl)c(F)c1)N[C@@H]1CC[C@@H](c2nnc([C@H]3C[C@@H](OC(F)(F)F)C3)o2)OC1` [Example 1, 2-(4-chloro-3-fluoro-phenoxy)-N-[(3R,6S)-6-[5-[3-cis-(trifluoromethoxy)cyclobutyl]-1,3,4-oxadiazol-2-yl]tetrahydropyran-3-yl]acetamide] is more than 6.00. On the same count and under the same terms, the figure for `O=C(COC1CC(OC(F)(F)F)C1)NC12CCC(C3CC(c4ccc(Cl)c(F)c4)=NO3)(CC1)OC2` (stereo not shown) [Example 49] is less than 5.00. Turning to `O=C(COc1ccc(Cl)cc1)N[C@@H]1CC[C@@H](C(O)COC2CC(OC(F)(F)F)C2)OC1` (single isomer, unassigned) [Example 64], the pIC50 is more than 6.00.

As to `O=C(COC1CC(OC(F)(F)F)C1)N[C@@H]1CC[C@@H](c2cnn([C@H]3C[C@@H](OC(F)(F)F)C3)n2)OC1` (stereo partly drawn) [Example 17, 2-[3-cis-(trifluoromethoxy)cyclobutoxy]-N-[(3R,6S)-6-[2-[3-cis-(trifluoromethoxy)cyclobutyl]triazol-4-yl]tetrahydropyran-3-yl]acetamide], the pIC50 (Homo sapiens, 0.5 h) was more than 6.00. With `Cc1ccc(OCC(=O)N[C@@H]2CC[C@@H](c3nnc([C@H]4C[C@@H](OC(F)(F)F)C4)o3)OC2)cc1` [Example 28, 2-(4-methylphenoxy)-N-[(3R,6S)-6-[5-[3-cis-(trifluoromethoxy)cyclobutyl]-1,3,4-oxadiazol-2-yl]tetrahydropyran-3-yl]acetamide], where the note is “Homo sapiens, 0.5 h”, the pIC50 is more than 6.00. As to `O=C(COc1ccc(Cl)c(F)c1)N[C@@H]1CC[C@@H](c2nnc(C3C[C@H]3COC(F)(F)F)o2)OC1` (single isomer, unassigned) [Example 70], the pIC50 is more than 6.00. In addition, for the setting “Homo sapiens, 0.5 h”, the IC50 amounted to 8 nM.

On to `O=C(N[C@@H]1CC[C@@H](c2nnc(C3CC(OC(F)(F)F)C3)o2)OC1)c1ccc2cc(Cl)ccc2n1` (stereo partly drawn) [Example 56, 6-chloro-N-[(3R,6S)-6-[5-[3-cis-(trifluoromethoxy)cyclobutyl]-1,3,4-oxadiazol-2-yl]tetrahydropyran-3-yl]quinoline-2-carboxamide], for which, for the setting “Homo sapiens, 0.5 h”, the pIC50 is more than 6.00.

For `O=C(COc1ccc(C(F)(F)F)cc1)N[C@H]1CO[C@H](c2nnc(C3CC(OC(F)(F)F)C3)o2)CC1(F)F` (stereo partly drawn) [Example 61, N-((3S,6S)-4,4-difluoro-6-(5-(3-cis-(trifluoromethoxy)cyclobutyl)-1,3,4-oxadiazol-2-yl)tetrahydro-2H-pyran-3-yl)-2-(4-(trifluoromethyl)phenoxy)acetamide], under “Homo sapiens, 0.5 h”, the pIC50 was more than 6.00 and the IC50 was determined as 14.4 nM. On the same counts, the results for `O=C(COC1CC(OC(F)(F)F)C1)N[C@@H]1CC[C@@H](c2nnc(-c3ccc(Cl)c(F)c3)o2)OC1` (stereo partly drawn) [Example 19, N-[(3R,6S)-6-[5-(4-chloro-3-fluoro-phenyl)-1,3,4-oxadiazol-2-yl]tetrahydropyran-3-yl]-2-[3-cis-(trifluoromethoxy)cyclobutoxy]acetamide] are more than 6.00 and 29.5 nM.

Turning to `O=C(N[C@@H]1CC[C@@H](c2nnc(C3CC(OC(F)(F)F)C3)o2)OC1)c1ccc2cc(C(F)(F)F)ccc2n1` (stereo partly drawn) [Example 60, N-((3R,6S)-6-(5-(3-cis-(trifluoromethoxy)cyclobutyl)-1,3,4-oxadiazol-2-yl)tetrahydro-2H-pyran-3-yl)-6-(trifluoromethyl)quinoline-2-carboxamide], under “Homo sapiens, 0.5 h”, the pIC50 was more than 6.00 and the IC50 worked out at 3.5 nM. As for `O=C(COc1ccc(Cl)c(F)c1)N[C@@H]1CC[C@@H](c2nnc(COC(F)(F)F)o2)OC1` [Example 30, 2-(4-chloro-3-fluorophenoxy)-N-((3R,6S)-6-(5-((trifluoromethoxy)methyl)-1,3,4-oxadiazol-2-yl)tetrahydro-2H-pyran-3-yl)acetamide], where the note is “Homo sapiens, 0.5 h”, the pIC50 is more than 6.00. Take `O=C(COc1ccc(Cl)cc1F)N[C@@H]1CC[C@@H](c2nnc([C@H]3C[C@@H](OC(F)(F)F)C3)o2)OC1` [Example 31, 2-(4-chloro-2-fluoro-phenoxy)-N-[(3R,6S)-6-[5-[3-cis-(trifluoromethoxy)cyclobutyl]-1,3,4-oxadiazol-2-yl]tetrahydropyran-3-yl]acetamide]: the pIC50 (Homo sapiens, 0.5 h) was more than 6.00.

Consider `O=C(N[C@H]1CO[C@H](c2nnc(C3CC(OC(F)(F)F)C3)o2)CC1(F)F)c1ccc2cc(F)ccc2n1` (stereo partly drawn) [Example 59, N-((3S,6S)-4,4-difluoro-6-(5-(3-cis-(trifluoromethoxy)cyclobutyl)-1,3,4-oxadiazol-2-yl)tetrahydro-2H-pyran-3-yl)-6-fluoroquinoline-2-carboxamide], for which the pIC50 (Homo sapiens, 0.5 h) was more than 6.00.

Consider `O=C(N[C@@H]1CC[C@@H](c2nnc(C3CC(OC(F)(F)F)C3)o2)OC1)c1cn2ccc(Br)cc2n1` (stereo partly drawn) [Example 42, 7-bromo-N-((3R,6S)-6-(5-(3-cis-(trifluoromethoxy)cyclobutyl)-1,3,4-oxadiazol-2-yl)tetrahydro-2H-pyran-3-yl)imidazo[1,2-a]pyridine-2-carboxamide], for which the pIC50 (Homo sapiens, 0.5 h) is more than 6.00.

With `O=C(N[C@@H]1CC[C@@H](c2nnc(C3CC(OC(F)(F)F)C3)o2)OC1)[C@H]1CCc2cc(F)ccc2O1` (single isomer, unassigned) [Example 65], for the setting “Homo sapiens, 0.5 h”, the pIC50 is more than 6.00 and the IC50 was 8.5 nM. On to `O=C(COC1CC(OC(F)(F)F)C1)N[C@@H]1CC[C@@H](c2cc(-c3ccc(Cl)cc3)no2)OC1` (stereo partly shown) [Example 54], for which the pIC50 (Homo sapiens, 0.5 h) is more than 6.00. For the compound `O=C(COc1ccc(Cl)cc1)N[C@@H]1CC[C@@H](c2nnc([C@H]3C[C@@H](OC(F)(F)F)C3)o2)OC1` [Example 2, 2-(4-chlorophenoxy)-N-[(3R,6S)-6-[5-[3-cis-(trifluoromethoxy)cyclobutyl]-1,3,4-oxadiazol-2-yl]tetrahydropyran-3-yl]acetamide], under “Homo sapiens, 0.5 h”, the pIC50 was more than 6.00 and the IC50 stood at 2.7 nM.
